Measurements as given in the supplement of paper PMC10307832.

Tests used:
Experiment in all cases: relative viability (nuclei count vs DMSO), 5 days (fraction); higher = more cells survive
[1] = compound: C[C@@H](N)c1ccc(C(=O)Nc2ccnc3[nH]ccc23)cc1 + COc1cc2c(Oc3ccc(NC(=O)C4(C(=O)Nc5ccc(F)cc5)CC4)cc3F)ccnc2cc1OCCCN1CCOCC1 [Foretinib] (partner 0.25 µM)
Method in brief: (§1)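 Relative viability divides the nuclei count in treated wells by that in vehicle wells. Lung cancer cell lines were seeded in 1536-well plates, dosed by pin tool the next day, and fixed and stained after 5 days in one step with final 0.05% Triton X-100, 1% formaldehyde and 1 ug/ml Hoechst. Dosing was a single drug or a fixed anchor-drug dose plus five library-drug doses (not always all listed) in √10 steps, and values are medians of duplicate plates imaged at 4×.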

[2] = compound: C[C@@H](N)c1ccc(C(=O)Nc2ccnc3[nH]ccc23)cc1 + Nc1nc2[nH]cc(CCc3ccc(C(=O)N[C@@H](CCC(=O)O)C(=O)O)cc3)c2c(=O)[nH]1 [Pemetrexed] (partner 0.2 µM)
Method in brief: as §1

[3] = compound: O[C@H]1CC[C@H](Nc2ncc3nc(Nc4c(F)cc(F)cc4F)n([C@H]4CCOC4)c3n2)CC1 [Tanzisertib] + Cc1nc(Nc2ncc(C(=O)Nc3c(C)cccc3Cl)s2)cc(N2CCN(CCO)CC2)n1 [Dasatinib] (partner 0.075 µM)
Method in brief: as §1

[4] = compound: O[C@H]1CC[C@H](Nc2ncc3nc(Nc4c(F)cc(F)cc4F)n([C@H]4CCOC4)c3n2)CC1 [Tanzisertib] + Nc1nc2[nH]cc(CCc3ccc(C(=O)N[C@@H](CCC(=O)O)C(=O)O)cc3)c2c(=O)[nH]1 [Pemetrexed] (partner 0.2 µM)
Method in brief: as §1

Cell Line | relative viability ([1]; first compound 0.04 µM) | relative viability ([1]; first compound 0.1265 µM) | relative viability ([1]; first compound 0.4 µM) | relative viability ([1]; first compound 4 µM) | relative viability ([2]; first compound 0.04 µM) | relative viability ([2]; first compound 0.1265 µM) | relative viability ([2]; first compound 0.4 µM) | relative viability ([2]; first compound 1.265 µM) | relative viability ([2]; first compound 4 µM) | relative viability ([3]; first compound 0.08 µM) | relative viability ([3]; first compound 0.253 µM) | relative viability ([3]; first compound 0.8 µM) | relative viability ([3]; first compound 2.53 µM) | relative viability ([3]; first compound 8 µM) | relative viability ([4]; first compound 0.08 µM) | relative viability ([4]; first compound 0.253 µM) | relative viability ([4]; first compound 0.8 µM) | relative viability ([4]; first compound 2.53 µM) | relative viability ([4]; first compound 8 µM) | relative viability ([1]; first compound 1.265 µM)
NCI-H441 | 0.988 | 1.05 | 1.02 | 0.843 | 0.245 | 0.302 | 0.257 | 0.231 | 0.223 | 0.625 | 0.499 | 0.605 | 0.479 | 0.521 | 0.27 | 0.241 | 0.286 | 0.24 | 0.27 | –
NCI-H460 | 0.984 | 1.01 | 1 | 1 | 0.0682 | 0.063 | 0.0594 | 0.0603 | 0.0691 | 0.595 | 0.595 | 0.489 | 0.474 | 0.303 | 0.0668 | 0.0601 | 0.0628 | 0.0601 | 0.0429 | 0.986
NCI-H520 | 0.862 | 0.707 | 0.817 | 0.95 | 0.624 | 0.668 | 0.69 | 0.802 | 0.652 | 0.233 | 0.207 | 0.232 | 0.192 | 0.23 | 0.589 | 0.714 | 0.67 | 0.561 | 0.642 | 1.28
NCI-H596 | 1.07 | 0.82 | 0.772 | 0.761 | 0.528 | 0.534 | 0.504 | 0.509 | 0.41 | 0.673 | 0.614 | 0.541 | 0.53 | 0.459 | 0.506 | 0.538 | 0.515 | 0.516 | 0.467 | –
NCI-H647 | 1.22 | 1.06 | 1.25 | 0.895 | 0.199 | 0.2 | 0.24 | 0.166 | 0.145 | 0.226 | 0.201 | 0.142 | 0.189 | 0.149 | 0.204 | 0.185 | 0.18 | 0.151 | 0.156 | 1.21
NCI-H650 | – | 0.991 | 1.03 | 0.712 | – | 0.932 | 0.809 | – | 0.614 | 0.44 | 0.463 | 0.443 | 0.47 | 0.309 | 0.885 | 1.03 | 0.969 | 1.09 | 0.576 | 0.899
NCI-H661 | 0.947 | 1.09 | 1.03 | 0.855 | 0.938 | 0.964 | 0.943 | 0.811 | 0.639 | 1.01 | 0.867 | 0.971 | 0.785 | 0.868 | 0.896 | 0.896 | 0.872 | 0.919 | 0.913 | 0.923
NCI-H838 | 0.965 | 0.957 | 0.919 | 0.409 | 0.259 | 0.244 | 0.24 | 0.205 | 0.181 | 0.355 | 0.324 | 0.3 | 0.328 | 0.31 | 0.234 | 0.255 | 0.254 | 0.233 | 0.25 | 0.634
NCI-H1355 | 1.01 | 1.02 | 1.09 | 0.924 | 1.1 | 1.06 | 1.01 | 1.06 | 1.05 | 0.757 | 0.757 | 0.78 | 0.628 | 0.707 | 1.07 | 1.06 | 1.05 | 1.07 | 1.03 | 1.1
NCI-H1395 | 1.07 | 1.14 | 1.06 | 0.909 | 0.888 | 0.95 | 0.927 | – | 0.741 | 0.439 | 0.428 | 0.406 | 0.437 | 0.375 | 0.868 | 0.88 | 0.971 | 0.939 | 0.788 | 0.995
NCI-H1437 | 1.29 | 1.35 | 1.35 | 1.35 | 0.3 | 0.307 | 0.351 | 0.329 | 0.34 | 0.527 | 0.465 | 0.393 | 0.365 | 0.439 | 0.321 | 0.327 | 0.322 | 0.315 | 0.263 | 1.37
NCI-H1563 | 0.974 | 0.986 | 0.876 | 0.914 | 0.772 | 0.915 | 0.867 | 0.413 | 0.706 | 0.435 | 0.479 | 0.451 | 0.471 | 0.436 | 0.829 | 0.935 | 0.761 | 0.711 | 0.619 | 0.923
NCI-H1650 | 1.14 | 1.03 | 1.41 | 0.862 | 0.443 | 0.394 | 0.399 | 0.349 | 0.355 | 0.319 | 0.305 | 0.273 | 0.283 | 0.28 | 0.349 | 0.351 | 0.511 | 0.33 | 0.329 | 1.18
NCI-H1651 | 0.883 | 0.908 | 0.882 | 0.782 | 0.628 | 0.584 | 0.663 | 0.611 | 0.706 | 0.378 | 0.522 | 0.378 | 0.336 | 0.417 | 0.586 | 0.625 | 0.436 | 0.6 | 0.513 | 0.987
NCI-H1666 | 0.859 | 1.01 | 1.14 | 1.08 | 0.872 | 0.815 | 0.847 | 0.956 | 0.974 | 0.821 | 0.843 | 0.755 | 0.841 | 0.955 | 0.894 | 0.789 | 0.865 | 0.941 | 0.796 | 1.25
NCI-H1734 | 0.996 | 0.95 | 0.867 | 0.683 | 0.405 | 0.419 | 0.385 | 0.362 | 0.39 | 0.47 | 0.449 | 0.459 | 0.473 | 0.444 | 0.428 | 0.423 | 0.408 | 0.403 | 0.402 | 0.855
